Results taken from PubChem BioAssay (NCI).
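The compound was tested at five concentrations on cells cultured in 96-well plates, with a 48-hour exposure period. TGI is the concentration that stops growth completely.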

How the values were obtained:
Assay in all cases: DTP human tumour cell line panel, 48 h
[1] = tested on: 786-0 renal
[2] = tested on: A498 renal
[3] = tested on: A549 NSCLC
[4] = tested on: ACHN renal
[5] = tested on: CAKI-1 renal
[6] = tested on: COLO 205 colon
[7] = tested on: DU-145 prostate
[8] = tested on: EKVX NSCLC
[9] = tested on: HCC-2998 colon
[10] = tested on: HCT-116 colon
[11] = tested on: HCT-15 colon
[12] = tested on: HL-60(TB) leukemia
[13] = tested on: HOP-62 NSCLC
[14] = tested on: HOP-92 NSCLC
[15] = tested on: HT29 colon
[16] = tested on: IGROV1 ovarian
[17] = tested on: K-562 leukemia
[18] = tested on: KM12 colon
[19] = tested on: LOX IMVI melanoma
[20] = tested on: M14 melanoma
[21] = tested on: MALME-3M melanoma
[22] = tested on: MCF7 breast
[23] = tested on: MDA-MB-435
[24] = tested on: MDA-N
[25] = tested on: NCI-H23 lung
[26] = tested on: NCI-H460 lung
[27] = tested on: NCI-H522 lung
[28] = tested on: NCI/ADR-RES ovarian
[29] = tested on: OVCAR-3 ovarian
[30] = tested on: OVCAR-4 ovarian
[31] = tested on: OVCAR-5 ovarian
[32] = tested on: OVCAR-8 ovarian
[33] = tested on: PC-3 prostate
[34] = tested on: RXF 393 renal
[35] = tested on: SF-268 CNS
[36] = tested on: SF-295 CNS
[37] = tested on: SF-539 CNS
[38] = tested on: SK-MEL-2 melanoma
[39] = tested on: SK-MEL-28 melanoma
[40] = tested on: SK-MEL-5 melanoma
[41] = tested on: SK-OV-3 ovarian
[42] = tested on: SN12C renal
[43] = tested on: SNB-19 CNS
[44] = tested on: SNB-75 CNS
[45] = tested on: SR leukemia
[46] = tested on: SW-620 colon
[47] = tested on: T-47D breast
[48] = tested on: TK-10 renal
[49] = tested on: U251 CNS
[50] = tested on: UACC-257 melanoma
[51] = tested on: UACC-62 melanoma
[52] = tested on: UO-31 renal
[53] = tested on: BT-549 breast
[54] = tested on: HS 578T breast
[55] = tested on: MDA-MB-231 breast
[56] = tested on: MOLT-4 leukemia
[57] = tested on: RPMI-8226 leukemia
[58] = tested on: CCRF-CEM leukemia
[59] = tested on: NCI-H226 lung

OC1(c2ccccc2)CCCCCCCCC(O)(c2ccccc2)CCCCCCCC1 (centres undefined)
TGI [1]: > 100 µM
TGI [2]: > 100 µM
TGI [3]: > 100 µM
TGI [4]: > 100 µM
TGI [5]: > 100 µM
TGI [6]: > 100 µM
TGI [7]: > 100 µM
TGI [8]: > 100 µM
TGI [9]: > 100 µM
TGI [10]: > 100 µM
TGI [11]: > 100 µM
TGI [12]: > 100 µM
TGI [13]: > 100 µM
TGI [14]: > 100 µM
TGI [15]: > 100 µM
TGI [16]: > 100 µM
TGI [17]: > 100 µM
TGI [18]: > 100 µM
TGI [19]: > 100 µM
TGI [20]: > 100 µM
TGI [21]: > 100 µM
TGI [22]: > 100 µM
TGI [23]: > 100 µM
TGI [24]: > 100 µM
TGI [25]: > 100 µM
TGI [26]: > 100 µM
TGI [27]: > 100 µM
TGI [28]: > 100 µM
TGI [29]: > 100 µM
TGI [30]: > 100 µM
TGI [31]: > 100 µM
TGI [32]: > 100 µM
TGI [33]: > 100 µM
TGI [34]: > 100 µM
TGI [35]: > 100 µM
TGI [36]: > 100 µM
TGI [37]: > 100 µM
TGI [38]: > 100 µM
TGI [39]: > 100 µM
TGI [40]: > 100 µM
TGI [41]: > 100 µM
TGI [42]: > 100 µM
TGI [43]: > 100 µM
TGI [44]: > 100 µM
TGI [45]: > 100 µM
TGI [46]: > 100 µM
TGI [47]: > 100 µM
TGI [48]: > 100 µM
TGI [49]: > 100 µM
TGI [50]: > 100 µM
TGI [51]: > 100 µM
TGI [52]: > 100 µM

C/C=C\C(CC(=O)O)CN1CCC2=C(C1)C(S(=O)(=O)C(F)(F)F)c1ccccc12 (centres undefined)
TGI [1]: > 100 µM
TGI [2]: > 100 µM
TGI [3]: > 100 µM
TGI [4]: > 100 µM
TGI [53]: > 100 µM
TGI [5]: > 100 µM
TGI [6]: > 100 µM
TGI [7]: > 100 µM
TGI [8]: > 100 µM
TGI [9]: > 100 µM
TGI [10]: > 100 µM
TGI [11]: > 100 µM
TGI [13]: > 100 µM
TGI [14]: > 100 µM
TGI [54]: > 100 µM
TGI [15]: > 100 µM
TGI [16]: > 100 µM
TGI [17]: > 100 µM
TGI [18]: > 100 µM
TGI [20]: > 100 µM
TGI [21]: > 100 µM
TGI [22]: > 100 µM
TGI [55]: > 100 µM
TGI [23]: > 100 µM
TGI [24]: > 100 µM
TGI [56]: > 100 µM
TGI [25]: > 100 µM
TGI [26]: > 100 µM
TGI [27]: > 100 µM
TGI [28]: > 100 µM
TGI [29]: > 100 µM
TGI [30]: > 100 µM
TGI [31]: > 100 µM
TGI [32]: > 100 µM
TGI [33]: > 100 µM
TGI [57]: > 100 µM
TGI [34]: > 100 µM
TGI [35]: > 100 µM
TGI [36]: > 100 µM
TGI [38]: > 100 µM
TGI [39]: > 100 µM
TGI [40]: > 100 µM
TGI [41]: > 100 µM
TGI [43]: > 100 µM
TGI [44]: > 100 µM
TGI [45]: > 100 µM
TGI [46]: > 100 µM
TGI [49]: > 100 µM
TGI [50]: > 100 µM
TGI [51]: > 100 µM
TGI [52]: > 100 µM

CC(=O)OCC1OC(N2C(=S)N[C@H]([C@@H](O)[C@H](O)[C@H](O)CO)[C@H]2O)C(OC(C)=O)C(OC(C)=O)C1OC(C)=O (some centres undefined)
TGI [1]: > 100 µM
TGI [3]: > 100 µM
TGI [4]: > 100 µM
TGI [53]: > 100 µM
TGI [5]: > 100 µM
TGI [58]: > 100 µM
TGI [6]: > 100 µM
TGI [7]: > 100 µM
TGI [8]: > 100 µM
TGI [9]: > 100 µM
TGI [10]: > 100 µM
TGI [11]: > 100 µM
TGI [13]: > 100 µM
TGI [14]: > 100 µM
TGI [54]: > 100 µM
TGI [15]: > 100 µM
TGI [16]: > 100 µM
TGI [17]: > 100 µM
TGI [18]: > 100 µM
TGI [20]: > 100 µM
TGI [22]: > 100 µM
TGI [55]: > 100 µM
TGI [23]: > 100 µM
TGI [24]: > 100 µM
TGI [56]: > 100 µM
TGI [25]: > 100 µM
TGI [26]: > 100 µM
TGI [27]: > 100 µM
TGI [28]: > 100 µM
TGI [29]: > 100 µM
TGI [30]: > 100 µM
TGI [31]: > 100 µM
TGI [32]: > 100 µM
TGI [33]: > 100 µM
TGI [57]: > 100 µM
TGI [34]: > 100 µM
TGI [35]: > 100 µM
TGI [36]: > 100 µM
TGI [37]: > 100 µM
TGI [38]: > 100 µM
TGI [39]: > 100 µM
TGI [40]: > 100 µM
TGI [41]: > 100 µM
TGI [42]: > 100 µM
TGI [43]: > 100 µM
TGI [45]: > 100 µM
TGI [46]: > 100 µM
TGI [49]: > 100 µM
TGI [50]: > 100 µM
TGI [51]: > 100 µM
TGI [52]: > 100 µM

CC(=O)Nc1ccc(NNc2cc(=O)n(C)c(=O)[nH]2)cc1
TGI [1]: 7.63 µM
TGI [2]: 49.1 µM
TGI [3]: 34.7 µM
TGI [4]: 11.4 µM
TGI [53]: 25.7 µM
TGI [6]: 24 µM
TGI [7]: 29.5 µM
TGI [8]: 31.5 µM
TGI [9]: 24 µM
TGI [10]: 19.3 µM
TGI [11]: 20.6 µM
TGI [12]: 6.98 µM
TGI [13]: 30.4 µM
TGI [14]: 9.64 µM
TGI [54]: 53 µM
TGI [15]: 4.71 µM
TGI [16]: 27 µM
TGI [17]: > 100 µM
TGI [18]: 24.4 µM
TGI [19]: 5.72 µM
TGI [20]: 21.8 µM
TGI [21]: 25.2 µM
TGI [22]: 19.5 µM
TGI [55]: 24.8 µM
TGI [23]: 22.3 µM
TGI [24]: 23.7 µM
TGI [56]: > 100 µM
TGI [59]: 46 µM
TGI [25]: 31.1 µM
TGI [26]: 45.2 µM
TGI [28]: 43.8 µM
TGI [29]: 6.52 µM
TGI [30]: 21.9 µM
TGI [31]: 27.1 µM
TGI [32]: 45.1 µM
TGI [33]: 12.3 µM
TGI [57]: 9.69 µM
TGI [36]: 29.3 µM
TGI [37]: 30.2 µM
TGI [39]: 24.2 µM
TGI [40]: 31.2 µM
TGI [42]: 23.9 µM
TGI [43]: 31.6 µM
TGI [45]: > 100 µM
TGI [46]: 7.56 µM
TGI [48]: 39 µM
TGI [49]: 24 µM
TGI [50]: 26.8 µM
TGI [52]: 31 µM

CCOc1ccc2nc3cc(N=Nc4ccc(N)nc4N)ccc3c(N)c2c1
TGI [2]: 28.1 µM
TGI [3]: > 47.9 µM
TGI [4]: 33.9 µM
TGI [53]: 31.4 µM
TGI [5]: > 100 µM
TGI [7]: 26.8 µM
TGI [8]: 45.3 µM
TGI [9]: 4.35 µM
TGI [10]: 7.8 µM
TGI [11]: > 100 µM
TGI [12]: 10.1 µM
TGI [13]: > 100 µM
TGI [14]: 40.1 µM
TGI [54]: 15.2 µM
TGI [15]: 14 µM
TGI [16]: > 69.6 µM
TGI [17]: 1.67 µM
TGI [18]: > 100 µM
TGI [20]: 51.5 µM
TGI [21]: 21 µM
TGI [22]: 12.2 µM
TGI [55]: 2.92 µM
TGI [23]: > 100 µM
TGI [24]: 4.99 µM
TGI [56]: 4.83 µM
TGI [59]: 59.4 µM
TGI [25]: 21.9 µM
TGI [26]: 57.6 µM
TGI [27]: 8.71 µM
TGI [28]: > 100 µM
TGI [30]: > 78.6 µM
TGI [31]: 41.7 µM
TGI [32]: 34.3 µM
TGI [33]: 13.5 µM
TGI [57]: 61.6 µM
TGI [34]: 10 µM
TGI [36]: 63.4 µM
TGI [37]: 4.11 µM
TGI [38]: 4.66 µM
TGI [39]: 47.2 µM
TGI [40]: 55.2 µM
TGI [41]: > 30.3 µM
TGI [42]: 6.38 µM
TGI [43]: 3.08 µM
TGI [44]: 5.11 µM
TGI [46]: > 34.9 µM
TGI [48]: 28.6 µM
TGI [49]: 1.93 µM
TGI [50]: 57.1 µM
TGI [51]: 33.7 µM
TGI [52]: > 66.3 µM
